Assay [1] has as its system Pancreatic CSCs. The assay is described as follows: apoptosis. Format: cell-based, human. How it is done: (A and B) Induction of apoptosis and activation of caspase-3/-7. Pancreatic CSCs were treated with rottlerin (0-2 μM) for 48 h, and apoptosis and caspase-3/-7 activity were measured by […] and colorometric assay, respectively. […] (C) Pancreatic CSCs were treated with rottlerin (0-1 μM) for 48 h, and the expression of Bcl-2, XIAP and Survivin was measured by qRT-PCR and normalized to GAPDH.
(A) Pancreatic CSCs were treated with SAHA (3 and 5 μM) and 5-Aza-dc (2 and 4 μM) and cell viability was measured at 48 h by staining with trypan blue using Vi-CELL analyzer (Beckman Counter). (B) Pancreatic CSCs were untreated (a) or treated with SAHA (b) or 5-Aza-dC (c) for 48 h, and apoptosis was measured by staining with annexin-PI using Accuri Flow Cytometer. (C) Caspase-3/7 activity was measured in pancreatic CSCs treated with SAHA (0.5 and 2 μM) or 5-Aza-dC (1 and 3 μM) for 25 h.
(A) Regulation of caspase-3/7 activity by EGCG. CSCs were treated with EGCG (0-60 μM) for 24 h, and caspase-3/7 activity was measured as per manufacturer's instructions. […] (B) Regulation of apoptosis by EGCG. CSCs were treated with EGCG (0-60 μM) for 48 h, and apoptosis was measured by TUNEL assay. […] (C) Regulation of apoptosis-related proteins. Pancreatic CSCs were treated with EGCG (0-60 μM) for 36 h. Real time PCR (q-RT-PCR) was performed to examine the expression of Bcl-2, survivin, XIAP, and GAPDH.
FIG. 42A and FIG. 42B show graphs showing quercetin synergizes with EGCG to inhibit self-renewal capacity, invasion, migration, and TCF/LEF and Gli transcriptional activities in pancreatic CSCs. (A) Effects of EGCG and quercetin on spheroid and colony formation. Upper Panel, uercetin synergizes with EGCG to inhibit spheroid's cell viability. CSCs were seeded in suspension and treated with EGCG (0-60 μM) with or without quercetin (20 μM) for 7 days. At the end of incubation period, all the spheroids were collected and resuspended. Cell viability was measured by trypan blue assay. […] Lower panel, uercetin synergizes with EGCG to inhibit colony formation. Pancreatic CSCs were seeded in soft agar and treated with various doses of EGCG (0-60 μM) with or without quercetin (20 μM) and incubated at […] for 21 days. At the end of incubation period, colonies were counted. […] (B) Effects of EGCG and quercetin on invasion and migration. Upper panel, Matrigel invasion assay. CSCs were plated onto the Matrigel-coated membrane in the top chamber of the transwell and treated with EGCG (0-60 μM) with or without quercetin (20 μM) for 48 hrs. Cells invaded to the lower chambered were fixed with methanol, stained with crystal violet and counted. […] Lower panel, Transwell migration assay. Pancreatic CSCs were plated in the top chamber of the transwell and treated with EGCG (0-60 μM) with or without quercetin (20 μM) for 48 hrs. Cells migrated to the lower chambered were fixed with methanol, stained with crystal violet and counted. […] (C) Quercetin synergizes with EGCG to induce apoptosis. CSCs were seeded in suspension and treated with EGCG (0-60 μM) with or without quercetin (20 μM) for 7 days. At the end of incubation period, all the spheroids were collected. Apoptosis was measured by TUNEL assay. […] (D) Effects of EGCG and quercetin on TCF/LEF and Gli transcriptional activities. Pancreatic CSCs were transduced with either lentivirus encoding TCF/LEF responsive GFP and luciferase genes or Gli-responsive GFP and luciferase genes. Transduced CSCs were treated with EGCG (40 μM) with or without quercetin (20 μM) for 48 hrs and the luciferase activity was measured.
Pancreatic CSCs were (a) untreated, (b) treated with SAHA, or (c) treated with 5-Aza-dC for 48 hours and apoptosis was measured by staining with annexin-PI using Accuri Flow Cytometer. The results of those studies are illustrated in FIG. 31B.

The test system of assay [2] is Prostate CSCs. The assay is described as follows: cell viability, trypan blue, Vi-CELL analyzer. Format: cell-based, human. Conditions: 3 days. The procedure: Prostate CSCs were treated with resveratrol (0-20 μM), curcumin (0-20 μM), honokiol (0-20 μM) and diallyl trisulphide (0-10 μM) for 3 days, and cell viability was measured by staining with trypan blue using Vi-CELL analyzer (Beckman Counter).
Prostate CSCs were treated with sulforaphane (0-20 μM), rottlerin (0-5 μM), EGCG (0-40 μM) and embelin (0-1 μM) for 3 days, and cell viability was measured by staining with trypan blue using Vi-CELL analyzer (Beckman Counter).
Prostate CSCs were treated with resveratrol (0-20 μM), curcumin (0-20 μM), honokiol (0-20 μM), and diallyl trisulphide (0-10 μM) for 3 days and cell viability was measured by staining with trypan blue using Vi-CELL analyzer. The results of those studies are illustrated in FIG. 25.
Prostate CSCs were treated with sulforaphane (0-20 μM), rottlerin (0-5 μM), EGCG (0-40 μM), and embelin (0-1 μM) for 3 days and cell viability was measured by staining with trypan blue using Vi-CELL analyzer. The results of those studies are illustrated in FIG. 26.

Setting [3] is: EGCG 0-60 μM with or without quercetin 20 μM, 7 days, spheroids, TUNEL assay.

As to `O=C(O[C@@H]1Cc2c(O)cc(O)cc2O[C@@H]1c1cc(O)c(O)c(O)c1)c1cc(O)c(O)c(O)c1` [EGCG, epigallocatechin gallate], the apoptosis result in assay [1] (setting [3]) was “induced apoptosis”; in assay [1] (EGCG 0-60 μM, 48 h, TUNEL assay), “induced caspase-3/7 activity and apoptosis in pancreatic CSCs in a dose-dependent manner”. The cell viability result in assay [2] was “inhibit cell viability”.

On to `O=c1c(O)c(-c2ccc(O)c(O)c2)oc2cc(O)cc(O)c12` [quercetin], for which the apoptosis result in assay [1] (setting [3]) is recorded as “induced apoptosis”.

With `CC(=O)c1c(O)c(C)c(O)c(Cc2c(O)c3c(c(C(=O)/C=C/c4ccccc4)c2O)OC(C)(C)C=C3)c1O` [rottlerin], the apoptosis entry in assay [1] (rottlerin 0-2 μM, 48 h) is “induced”. The cell viability result in assay [2] is listed as “inhibit cell viability”.

`C[S+]([O-])CCCCN=C=S` (stereo not shown) [sulforaphane]: the cell viability result in assay [2] is reported as “inhibit cell viability”.

(Values after patent publication US20160374944A1, “COMPOSITIONS AND METHODS FOR TREATING AND PREVENTING CANCER BY TARGETING AND INHIBITING CANCER STEM CELLS” (priority 2011, published 2016).)
